Literature values as cited in patent US12194065B2, “Methods and compositions to enhance metabolic detoxification systems” (Nature's Sunshine Products, Inc., priority 2017, dated 2025).

What was measured:
eNOS = eNOS (Homo sapiens, UniProt P29474)
[1] = acute supplementation of 6 g, over 120 minutes, healthy individuals with normal plasma ADMA
[2] = once produced through NOS

Chain of eNOS (P29474 2-1203): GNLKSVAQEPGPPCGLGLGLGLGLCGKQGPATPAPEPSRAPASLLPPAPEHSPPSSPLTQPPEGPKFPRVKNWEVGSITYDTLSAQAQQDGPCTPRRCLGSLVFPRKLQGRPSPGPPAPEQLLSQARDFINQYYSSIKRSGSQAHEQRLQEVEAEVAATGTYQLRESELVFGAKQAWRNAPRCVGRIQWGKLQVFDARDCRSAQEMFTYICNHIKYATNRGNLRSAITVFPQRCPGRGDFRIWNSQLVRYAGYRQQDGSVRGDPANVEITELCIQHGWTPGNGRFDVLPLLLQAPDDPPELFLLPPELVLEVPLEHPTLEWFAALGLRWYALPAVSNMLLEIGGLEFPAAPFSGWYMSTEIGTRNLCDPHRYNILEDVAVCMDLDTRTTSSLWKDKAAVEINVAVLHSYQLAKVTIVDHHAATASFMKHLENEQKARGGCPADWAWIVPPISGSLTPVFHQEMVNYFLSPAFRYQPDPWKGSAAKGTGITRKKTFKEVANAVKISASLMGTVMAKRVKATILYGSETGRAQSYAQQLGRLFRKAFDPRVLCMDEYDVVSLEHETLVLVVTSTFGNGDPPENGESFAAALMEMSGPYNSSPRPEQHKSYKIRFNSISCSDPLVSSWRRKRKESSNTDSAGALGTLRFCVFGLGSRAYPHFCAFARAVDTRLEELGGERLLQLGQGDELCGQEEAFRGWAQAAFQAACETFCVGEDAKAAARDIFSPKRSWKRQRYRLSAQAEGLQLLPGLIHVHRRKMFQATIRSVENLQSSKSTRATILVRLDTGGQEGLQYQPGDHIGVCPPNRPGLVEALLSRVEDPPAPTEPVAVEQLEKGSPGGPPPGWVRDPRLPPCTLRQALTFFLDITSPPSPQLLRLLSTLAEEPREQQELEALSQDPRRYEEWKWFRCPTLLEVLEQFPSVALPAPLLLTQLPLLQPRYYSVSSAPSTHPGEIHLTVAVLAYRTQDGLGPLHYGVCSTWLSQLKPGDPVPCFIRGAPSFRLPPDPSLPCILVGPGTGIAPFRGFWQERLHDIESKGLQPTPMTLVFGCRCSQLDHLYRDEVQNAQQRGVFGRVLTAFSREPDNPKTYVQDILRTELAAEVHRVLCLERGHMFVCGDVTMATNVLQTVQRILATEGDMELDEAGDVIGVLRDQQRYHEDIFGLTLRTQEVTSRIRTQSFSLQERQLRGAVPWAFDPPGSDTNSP

Structure (SMILES) | concentration saturating eNOS (eNOS) | plasma concentration of NOx [1] | half-life [2]
N=C(N)NCCC[C@H](N)C(=O)O [L-arginine] | approximately 3 μmol arginine/L | does not increase | 
[N]=O [NO, Nitric oxide] |  |  | approximately 1 second
